From US9827260B2, “Composition for buffered aminoalkyl glucosaminide phosphate compounds and its use for enhancing an immune response” (GlaxoSmithKline Biologicals s.a., priority 2013, dated 2017)

Legend:
[1] = Accelerated stability test (forced degradation), 14 days at 40° C; details: both buffers at pH=7.0, FIG. 5
Protocol: Buffers 1-7 of Table 1 were screened for stability at the concentrations shown in the Table using an accelerated stability test. The buffer compositions were maintained for 14 days at 40° C.

[2] = Sonication processing time to achieve a clear solution of CRX-601 buffered formulations; assay type: physicochemical
Protocol: (§1) CRX-601 was formulated in the 10 mM HEPES buffered at pH=7.0 at 2 mg/mL target concentration by weighing 3.99 mg of CRX-601 and adding 1.877 mL of 10 mM HEPES followed by ultrasonication in a water bath sonicator. After 25 minutes the solution was visibly clear, but the sonication was continued since the other CRX-601 formulations with the other buffers employed herein had not yet achieved similar visual appearance. This was done because the goal was to subject each CRX-601 buffered formulation to the same amount of processing energy.
as §1, with “pH=8.0” for “pH=7.0”
Each of the buffer solutions was then sonciated to reduce the particle size to allow for sterile filtration.

SMILES | stability of the AGP in HEPES as compared against phosphate buffer [1] | sonication time until solution visibly clear ([2]; 2 mg/mL in 10 mM HEPES at pH=7.0, water bath sonicator) | sonication time until solution visibly clear ([2]; 2 mg/mL in 10 mM HEPES at pH=8.0, water bath sonicator)
CCCCCCCCCCC[C@H](CC(=O)N[C@H]1[C@H](OC[C@H](NC(=O)C[C@@H](CCCCCCCCCCC)OC(=O)CCCCCCCCC)C(=O)O)O[C@H](CO)[C@@H](OP(=O)(O)O)[C@@H]1OC(=O)C[C@@H](CCCCCCCCCCC)OC(=O)CCCCCCCCC)OC(=O)CCCCCCCCC [CRX-527] | enhanced stability | – | –
CCCCCCCCCCC[C@H](CC(=O)N[C@H]1[C@H](OC[C@H](NC(=O)C[C@@H](CCCCCCCCCCC)OCCCCCCCCCC)C(=O)O)O[C@H](CO)[C@@H](OP(=O)(O)O)[C@@H]1OC(=O)C[C@@H](CCCCCCCCCCC)OCCCCCCCCCC)OCCCCCCCCCC [CRX-601] | enhanced stability | 25 min | 25 min
